{
  "source": "paper PMC8776894",
  "about": "(Communications Biology, 2022)",
  "key": {"MCAO/R mice [1]": {"test_system": "MCAO/R mice", "conditions": "mouse, in vivo"}, "MCAO/R mice [2]": {"test_system": "MCAO/R mice", "assay": "Morris water maze test", "type": "in vivo, mouse", "conditions": "for Morris water maze latency to the platform (sheet block Fig.2h): individual animals", "method": "To evaluate the spatial learning and memory ability of mice, the Morris water maze was performed after MCAO/R at 11, 12, 13, 14, and 15 days as described previously with minor modifications[66],[67]. […] Three trials were performed per day with the platform present and continuously detected for 4 days. Data from those trials were shown as the latency to locate the hidden platform on each day and were in indirect proportion to spatial learning abilities. A single 60 s probe test was performed on each mouse on the final day of testing. The platform was withdrawn and each mouse was placed at the same starting position in the pool and allowed to swim for 60 s. The investigator then recorded the time spent in the target quadrant, where the platform had previously been located. The latter measurements were interpreted as spatial memory."}, "HT22 cells (OGD/R)": {"test_system": "HT22 cells (OGD/R)", "assay": "Seahorse extracellular acidification rate (ECAR)", "type": "cell-based, mouse", "conditions": "dose-dependent", "method": "HT22 cells were counted and plated at 8000 cells per well in a Seahorse XF96 Cell Culture Microplate for all experiments (Agilent). They were then treated with VK (0.0735 or 0.735 μM) for 24 h. […] Next, HT22 cells were washed after 24 h of incubation and were incubated in a 0% CO2 chamber at 37 °C for 1 h, before being placed into a Seahorse XFe96 Analyzer (Agilent). In OCR experiment, HT22 cells were treated, with 2 μM of oligomycin, 5 μM of FCCP, and 1 μM of rotenone and antimycin, respectively; to assess ECAR, they were treated with 1 μM of rotenone and antimycin and 50 mM of 2-DG. All OCR and ECAR data were normalized to cell number per well using WAVE (Agilent)."}, "MCAO/R mice [3]": {"test_system": "MCAO/R mice", "assay": "Evans blue extravasation, BBB permeability", "type": "in vivo, mouse", "design": "EB content in damaged (right) hemisphere (Fig.4): unit not given here", "conditions": "for EB content in damaged (right) hemisphere (Fig.4): individual animals", "method": "Fig. 4 Protective effect of VK on the blood–brain barrier (BBB) in stroke mice. a Experimental design: in addition to the sham group, mice (8–10 weeks, male) were subjected to MCAO for 60 min. Mice were randomized into four groups: sham group, vehicle group, and VK (150 and 300 µg/kg) groups. Mice were administered VK at 0, 4, 22.5, and 46.5 h after MCAO/R and BBB integrity was assessed by Evans blue (EB) and transmission electron microscope (TEM). b Brain samples were stained with EB. c EB content in damaged (right) hemisphere was quantized. d Schematic of BBB. The BBB mainly consists of endothelial cells (EC), pericytes (PC), astrocytes (Ast), neurons, tight junctions (TJs), and the basement membranes (BM). The main components of the BBB are cerebral microvascular ECs joined by TJs, thus restricting exogenous molecules into the brain. e The structure of the BBB was observed by TEM. In the sham group (e1–3), the capillary morphology was regular, the EC and TJ were complete, the thickness of the BM was uniform and continuous around the outside of EC, and the structure of mitochondria (Mt) was clear. […] The marks with different symbols indicate the constituent cells or matrix of the BBB. Scale bars: 2 µm. Data are expressed as the mean ± SD, n = 5. Values were analyzed using one-way analysis of variance (ANOVA) with the Tukey multiple comparisons test."}, "[4]": {"test_system": "CD45+F4/80+CD11b+MHCII+ microglia", "assay": "Flow cytometry of primary microglia from brain", "type": "in vivo, mouse", "conditions": "MCAO/R mice, IF", "method": "Brain samples were collected in sham or MCAO mice, digested with collagenase IV and DNase, and filtered with sterile cell strainers (Biologix, 70 µm). Single-cell suspensions were prepared after the removal of red blood cells by ammonium-chloride-potassium (ACK) lysis buffer and isolated leukocytes in brains by 30%, 37%, and 70% Percoll (GE Healthcare) density gradient centrifugation, respectively. Cell numbers were counted by a Coulter counter (Thermo Fisher). Cells were washed with buffer (PBS with 0.5% bovine serum albumin and 0.02% sodium azide) three times and subsequently stained with fluorochrome-conjugated monoclonal antibodies: PE Rat anti-Mouse CD45 (553081, BD Biosciences), FITC anti-mouse F4/80 antibody (123108, Biolegend), PerCP-Cyanine5.5 CD11b antibody (45-0112-82, Invitrogen), and APC anti-mouse I-A/I-E antibody (107614, Biolegend). Samples were analyzed using Flow Cytometry (CytoFLEX S). Subsequent analysis was performed with FlowJo software (Tree Star Inc., San Carlos, CA, USA). Total microglia were identified as CD45^+F4/80^+CD11b^+, M1-like microglia were identified as CD45 + F4/80 + CD11b + MHCII + ."}, "[5]": {"test_system": "primary cortical neurons and primary microglia", "assay": "Primary neuron and microglia co-culture, OGD/R, ELISA of proinflammatory factors", "type": "cell-based, mouse", "method": "Histological analysis. Organs such as heart, liver, kidney, and brain were excised and fixed in 10% formaldehyde for histological analysis. Their organs were collected and fixed with 4% PFA for 12-18 h, followed by dehydrating using an automatic dehydrator (Leica ASP-300S, Germany) and embedding in paraffin. Then, each sample was coronally cut (4 µm) using a rotatory microtome (Leica RM2245, Germany). The […]\nPrimary culture of neuron and microglia. Primary cortical neurons (1.0 × 10^5 cells per well in poly-L-lysine-coated 24-well plate) were obtained from fetal C57BL/6 mice of embryonic day 16–17.5, as previously reported1. After careful removal of meninges, cortical tissues were digested in dulbecco's modified eagle medium (DMEM, Gibco) containing 0.05% trypsin (Gibco) at 37 °C for 20 min. DMEM containing 10% FBS (Gibco) was then added to terminate the digestion. The mixture was homogenized by pipetting 120 times and was subsequently filtered with a 100-μm cell strainer (Biologix) and centrifuged at 1000 rpm for 5 min. Then, the cells were collected and resuspended by DMEM supplemented with 10% FBS (Gibco) and penicillin-streptomycin (Gibco).\nThe suspension was seeded into 24-well plates (10^5 cells/ml), and 4 h later, the medium was changed with Neurobasal medium (Gibco) containing 1% […] and 2% B27 supplement. […]"}, "[6]": {"test_system": "HT22 hippocampal neuron cells", "assay": "CCK-8 cytotoxicity in HT22 cells", "conditions": "CCK8 assay"}},
  "note": "Values joined by “and” are separate entries in the source; they are usually repeats but may differ in a detail not shown here. Identical values can stand only once.",
  "data": [
    {"substance": "Gly-Arg-Pro-Hyp-Gly-Phe-Ser-Pro-Phe-Arg-Ile-Asp [VK, Vespakinin-M]", "values": [
      {"measurement": "neurological deficits and infarct size vs vehicle (antagonist study)", "setting": "MCAO/R mice [1]", "value": "attenuated neurological deficits and infarct size"},
      {"measurement": "infarct volume, TTC staining", "setting": "MCAO/R mice [1]; ip", "value": "decreased infarct volume"},
      {"measurement": "Morris water maze latency to the platform (sheet block Fig.2h)", "setting": "MCAO/R mice [2]; 11d after MCAO/R, VK 150 µg/kg, 60 s maximum", "value": "46.96 and 55.37 and 56.98 and 48.52 and 58.61 and 60 and 58.12"},
      {"measurement": "Morris water maze latency to the platform (sheet block Fig.2h)", "setting": "MCAO/R mice [2]; 11d after MCAO/R, VK 300 µg/kg, 60 s maximum", "value": "51 and 55.8"},
      {"measurement": "Morris water maze latency to the platform (sheet block Fig.2h)", "setting": "MCAO/R mice [2]; 12d after MCAO/R, VK 150 µg/kg", "value": "35.17 and 36.55 and 38.29 and 31.14 and 35.03 and 46.91 and 50.97"},
      {"measurement": "Morris water maze latency to the platform (sheet block Fig.2h)", "setting": "MCAO/R mice [2]; 12d after MCAO/R, VK 300 µg/kg", "value": "43.25 and 49.34 and 39.87 and 44.13 and 49.62 and 33.65"},
      {"measurement": "Morris water maze latency to the platform (sheet block Fig.2h)", "setting": "MCAO/R mice [2]; 13d after MCAO/R, VK 150 µg/kg", "value": "12.69 and 22.64 and 25.57 and 20.24 and 33.84 and 30.46 and 33.85"},
      {"measurement": "Morris water maze latency to the platform (sheet block Fig.2h)", "setting": "MCAO/R mice [2]; 13d after MCAO/R, VK 300 µg/kg", "value": "24.06 and 46.35 and 29.58 and 38.44 and 42.39 and 44"},
      {"measurement": "Morris water maze latency to the platform (sheet block Fig.2h)", "setting": "MCAO/R mice [2]; 14d after MCAO/R, VK 150 µg/kg", "value": "8.5 and 15.36 and 20.6 and 19.38 and 15.89 and 10.11 and 29.75"},
      {"measurement": "Morris water maze latency to the platform (sheet block Fig.2h)", "setting": "MCAO/R mice [2]; 14d after MCAO/R, VK 300 µg/kg", "value": "18.28 and 40.48 and 16.15 and 23.59 and 39.68 and 25.37"},
      {"measurement": "spatial learning, escape latency", "setting": "MCAO/R mice [2]; day 11–14 after MCAO/R", "value": "decreased escape latency"},
      {"measurement": "spatial memory, probe trial vs vehicle", "setting": "MCAO/R mice [2]; day 15 after MCAO/R", "value": "more crossovers and spent more time in the platform quadrant"},
      {"measurement": "glycolysis (extracellular acidification rate) in neurons", "setting": "HT22 cells (OGD/R)", "value": "decreased glycolysis"},
      {"measurement": "EB content in damaged (right) hemisphere (Fig.4)", "setting": "MCAO/R mice [3]; VK 150 µg/kg i.p.", "value": "0.6116 and 3.907 and 2.036 and 0.849 and 0.3932"},
      {"measurement": "EB content in damaged (right) hemisphere (Fig.4)", "setting": "MCAO/R mice [3]; VK 300 µg/kg i.p.", "value": "0.754 and 0.4027 and 0.5261 and 1.381 and 3.67"},
      {"measurement": "BBB permeability, EB extravasation", "setting": "MCAO/R mice [3]; VK 150 and 300 µg/kg", "value": "reversed the effect of MCAO-induced on BBB permeability"},
      {"measurement": "activation of microglia", "setting": "[4]", "value": "suppressed the excessive activation of microglia"},
      {"measurement": "protection of neurons in co-culture with microglia, proinflammatory cytokines", "setting": "[5]", "value": "protects neurons"},
      {"measurement": "concentrations at which VK inhibited growth of HT22 cells", "setting": "[6]", "value": "73.5 to 735", "unit": "µM"}
    ]}
  ]
}
